The values below come from paper PMC6961116, “Scaffold-hopping identifies furano[2,3-d]pyrimidine amides as potent Notum inhibitors” (Bioorganic & Medicinal Chemistry Letters, 2020).

Where “and” joins values, the source holds several entries; their conditions need not be identical. Identical values can stand only once. Like-named read-outs stand apart in the source and are kept apart here.

The conditions of data set [1]: mouse liver microsomes; amides 4; cited from earlier work. For orientation: Microsomes from liver hold many membrane-bound enzymes, among them those of drug oxidation.
A further data set relates to MDCK-MDR1 monolayer. Particulars: amides 4, cited from earlier work; for MDCK-MDR1 AB Papp: A to B direction; for MDCK-MDR1 BA Papp: B to A direction.
In data set [2] the target is T1, Notum(81–451 Cys330Ser) (Homo sapiens, UniProt Q6P988, C330S).
T1 sequence (Q6P988 81-451 C330S): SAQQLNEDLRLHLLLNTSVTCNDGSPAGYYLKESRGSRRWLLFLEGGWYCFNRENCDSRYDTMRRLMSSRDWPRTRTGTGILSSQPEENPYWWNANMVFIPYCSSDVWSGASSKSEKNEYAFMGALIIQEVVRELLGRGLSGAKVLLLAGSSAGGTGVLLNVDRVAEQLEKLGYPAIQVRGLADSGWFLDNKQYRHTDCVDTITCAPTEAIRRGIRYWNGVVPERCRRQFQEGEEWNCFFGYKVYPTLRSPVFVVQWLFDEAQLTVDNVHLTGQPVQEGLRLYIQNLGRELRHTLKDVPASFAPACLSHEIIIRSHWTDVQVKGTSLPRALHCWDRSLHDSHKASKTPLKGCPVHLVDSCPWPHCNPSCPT
Particulars: thieno[3,2-d]pyrimidine amides 4; OPTS assay; geometric mean ± s.d.; cited from earlier work.

Data set [3] has as its target T1, Notum(81–451 Cys330Ser). Briefly: Notum biochemical OPTS assay (carboxylesterase activity). Particulars: OPTS substrate, 1 h incubation; geometric mean ± s.d.
The test system of a further data set is P-gp (MDR1). The data set is described as follows: MDCK-MDR1 cell permeability and efflux. The data set is classed as in vitro ADME. Particulars: dog.
Another data set concerns the target T2, Notum (Homo sapiens, UniProt Q6P988, C330S).
T2 sequence (Q6P988 81-451 C330S): T1 sequence (Q6P988 81-451 C330S)
Briefly: Notum enzymatic stability (biochemical assay without OPTS substrate). Particulars: up to 72 h.

The nature of data set [4]: Metabolic stability in mouse liver microsomes (MLM). It counts as in vitro ADME.
Data set [5] is described as follows: Hydrolytic stability in citrate buffer. Particulars: citrate buffer 0.1 M, pH 4, up to 24 h, UPLC-MS. The data set is classed as physicochemical.
A short description of a further data set: LogD7.4. The data set is classed as physicochemical. Particulars: pH 7.4.
The nature of another data set: Aqueous solubility. The data set is classed as physicochemical. Particulars: read-out: Aq. solubility.
A short description of data set [6]: Mouse pharmacokinetics, single oral dose. The data set is classed as in vivo. Particulars: p.o. 10 mg/kg. As to the method: At this point, mouse pharmacokinetic data for 5l was generated in vivo to determine the extent of plasma exposure and to check the correlation of the in vitro ADME data with in vivo outcomes.
Animal Testing Declaration: In vivo mouse pharmacokinetic data was generated at GVK Biosciences, Hyderabad, India. GVK Biosciences is accredited by AAALAC and OLAW for the ethical treatment of animals. All the animal experiments are conducted in accordance with IAEC approved protocols. See: https://www.gvkbio.com/biology-services/in-vivo-pharmacology/

A further data set deals with CYP2C9 (Homo sapiens, UniProt P11712). The data set is described as follows: CYP2C9 inhibition. The data set is classed as in vitro ADME.
Sequence of CYP2C9 (P11712 whole entry): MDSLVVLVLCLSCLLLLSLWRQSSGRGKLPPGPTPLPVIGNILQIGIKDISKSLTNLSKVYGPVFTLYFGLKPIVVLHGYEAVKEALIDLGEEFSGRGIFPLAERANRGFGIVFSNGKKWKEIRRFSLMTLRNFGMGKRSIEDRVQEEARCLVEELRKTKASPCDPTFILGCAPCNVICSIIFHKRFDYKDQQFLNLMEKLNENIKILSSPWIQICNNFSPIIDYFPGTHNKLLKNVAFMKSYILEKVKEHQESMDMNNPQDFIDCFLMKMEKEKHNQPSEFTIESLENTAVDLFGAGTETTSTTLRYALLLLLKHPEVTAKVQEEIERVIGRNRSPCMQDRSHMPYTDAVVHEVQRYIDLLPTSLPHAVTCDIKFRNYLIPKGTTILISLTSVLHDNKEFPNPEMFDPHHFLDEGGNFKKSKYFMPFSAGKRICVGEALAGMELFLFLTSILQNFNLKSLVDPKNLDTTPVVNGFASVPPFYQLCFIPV
A further data set concerns the target T3, CYP1A2 (Homo sapiens, UniProt P05177).
T3 sequence (P05177 1-516): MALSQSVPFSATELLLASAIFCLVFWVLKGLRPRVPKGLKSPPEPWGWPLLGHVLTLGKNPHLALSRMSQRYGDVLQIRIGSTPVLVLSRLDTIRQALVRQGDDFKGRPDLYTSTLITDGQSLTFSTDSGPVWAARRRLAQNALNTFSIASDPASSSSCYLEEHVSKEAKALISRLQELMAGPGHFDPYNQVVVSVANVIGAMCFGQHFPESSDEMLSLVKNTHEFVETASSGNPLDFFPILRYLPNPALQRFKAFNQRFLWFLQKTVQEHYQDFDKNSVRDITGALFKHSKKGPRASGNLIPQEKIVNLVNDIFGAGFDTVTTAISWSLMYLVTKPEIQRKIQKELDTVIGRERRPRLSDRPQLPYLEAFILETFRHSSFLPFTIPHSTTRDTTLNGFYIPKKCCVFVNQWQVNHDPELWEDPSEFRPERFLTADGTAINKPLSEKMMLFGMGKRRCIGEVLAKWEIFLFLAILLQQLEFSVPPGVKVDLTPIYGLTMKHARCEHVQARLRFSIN
The data set is described as follows: CYP1A2 inhibition. It counts as in vitro ADME.

A further data set in a line: Mouse plasma stability. The data set is classed as in vitro ADME. An excerpt: However, the ER for 24 was perceived to be within acceptable limits based on established precedent.[22] [table]
Another data set has as its target CYP2D6 (Homo sapiens, UniProt P10635). Briefly: CYP2D6 inhibition. The data set is classed as in vitro ADME.
A further data set deals with CYP3A4 (Homo sapiens, UniProt P08684). Briefly: CYP3A4 inhibition. The data set is classed as in vitro ADME.
Sequence of CYP3A4 (P08684 whole entry): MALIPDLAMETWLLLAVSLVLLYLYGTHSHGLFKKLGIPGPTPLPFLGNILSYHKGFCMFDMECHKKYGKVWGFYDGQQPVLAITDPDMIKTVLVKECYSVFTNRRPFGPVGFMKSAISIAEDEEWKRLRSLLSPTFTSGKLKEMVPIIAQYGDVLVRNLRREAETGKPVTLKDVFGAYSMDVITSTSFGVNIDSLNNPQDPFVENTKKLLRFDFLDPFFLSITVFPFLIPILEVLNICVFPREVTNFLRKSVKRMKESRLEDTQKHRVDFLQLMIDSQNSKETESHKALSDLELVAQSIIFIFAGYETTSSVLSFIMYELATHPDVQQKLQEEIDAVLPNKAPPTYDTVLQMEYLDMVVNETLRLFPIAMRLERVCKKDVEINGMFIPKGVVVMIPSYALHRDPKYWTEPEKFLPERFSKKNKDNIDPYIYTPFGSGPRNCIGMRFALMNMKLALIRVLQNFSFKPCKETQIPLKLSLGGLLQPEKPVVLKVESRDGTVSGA
The target of the next data set is T4, CYP2B6 (Homo sapiens, UniProt P20813).
T4 sequence (P20813 1-491): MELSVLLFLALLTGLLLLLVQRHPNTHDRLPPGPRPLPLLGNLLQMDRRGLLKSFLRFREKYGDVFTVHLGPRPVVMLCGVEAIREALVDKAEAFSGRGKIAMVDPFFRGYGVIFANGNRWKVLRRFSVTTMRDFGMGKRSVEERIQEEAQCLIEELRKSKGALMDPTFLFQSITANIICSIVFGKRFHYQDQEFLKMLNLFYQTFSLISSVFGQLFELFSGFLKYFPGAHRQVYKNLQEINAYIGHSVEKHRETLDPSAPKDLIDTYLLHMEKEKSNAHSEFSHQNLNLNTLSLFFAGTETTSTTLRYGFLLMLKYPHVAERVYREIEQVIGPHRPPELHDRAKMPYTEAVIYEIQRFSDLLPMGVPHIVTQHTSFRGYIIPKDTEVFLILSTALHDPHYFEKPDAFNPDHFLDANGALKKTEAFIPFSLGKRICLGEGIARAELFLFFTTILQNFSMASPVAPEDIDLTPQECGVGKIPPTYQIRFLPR
The data set is described as follows: CYP2B6 inhibition. It counts as in vitro ADME.

Where [7] appears, read: MDCK-MDR1, A to B direction, read-out: MDCK-MDR1 AB Papp.
[8] abbreviates: MDCK-MDR1, B to A direction, read-out: MDCK-MDR1 BA Papp.
[9] abbreviates: C57BL/6, mouse, po, plasma, male C57BL6 mice.
The mark [10] stands for this setting: C57BL/6, mouse, po, brain, male C57BL6 mice.

Sequence of CYP2D6 (P10635 whole entry): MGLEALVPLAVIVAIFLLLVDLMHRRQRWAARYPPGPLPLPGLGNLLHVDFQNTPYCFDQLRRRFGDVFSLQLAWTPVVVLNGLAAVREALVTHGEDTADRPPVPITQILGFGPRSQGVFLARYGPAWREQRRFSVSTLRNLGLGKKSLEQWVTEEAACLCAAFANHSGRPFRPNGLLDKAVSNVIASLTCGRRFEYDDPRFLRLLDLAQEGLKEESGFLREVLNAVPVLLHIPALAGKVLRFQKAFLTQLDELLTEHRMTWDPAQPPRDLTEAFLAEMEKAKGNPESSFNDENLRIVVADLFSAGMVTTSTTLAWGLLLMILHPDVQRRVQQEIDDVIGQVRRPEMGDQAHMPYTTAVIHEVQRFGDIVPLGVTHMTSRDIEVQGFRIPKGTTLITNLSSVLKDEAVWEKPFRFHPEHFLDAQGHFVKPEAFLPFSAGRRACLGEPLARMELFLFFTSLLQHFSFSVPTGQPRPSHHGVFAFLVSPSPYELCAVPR

For `O=C(CSc1ncnc2c(C3CC3)c(Cl)sc12)N1CCOCC1` [Compound 4c], the “MLM Cli” value in data set [1] was more than 500 µL/min/mg. For the same compound, in the data set on MDCK-MDR1 monolayer, the “MDCK-MDR1 AB Papp” value is 40 ×10⁻⁶ cm/s and the “MDCK-MDR1 BA Papp” value was 38 ×10⁻⁶ cm/s.

In general, IC50 refers to the concentration at which inhibition is half-maximal. For the compound `O=C1CN(C(=O)CSc2ncnc3c(C4CC4)c(Cl)sc23)CCN1` [Compound 4d], in the data set with MDCK-MDR1 monolayer, the “MDCK-MDR1 AB Papp” value is 7.9 ×10⁻⁶ cm/s and the “MDCK-MDR1 BA Papp” value is 65 ×10⁻⁶ cm/s. For the same compound, at Notum(81–451 Cys330Ser) [2], the IC50 was less than 0.01 µM.

One may read the Papp as a coefficient for how fast a substance crosses the barrier. `Cc1sc2ncnc(SCC(=O)N3CCn4cnnc4C3)c2c1Cl` [Compound 5f] registered an IC50 on Notum(81–451 Cys330Ser) [3] of 0.0032 ± 0.0001 µM. Moreover, the Papp in the data set on P-gp (MDR1) (setting [7]) came out at 0.6 ×10⁻⁶ cm/s; in the data set with P-gp (MDR1) (setting [8]), 56 ×10⁻⁶ cm/s. In addition, the efflux ratio in the data set on P-gp (MDR1) (MDCK-MDR1, read-out: MDCK-MDR1 efflux ratio (ER)) was determined as 93. In addition, the Notum enzymatic stability result at Notum is on record as “only parent was detected”. The “MLM Cli” value in [4] (mouse liver microsomes) turned out to be 13 µL/min/mg. Moreover, the Hydrolytic stability entry in [5] is reported as “only parent was detected”.

As a reminder, the logD is the decadic logarithm of the distribution of all forms, ionised or not, between an organic phase and buffer at a given pH. By solubility is commonly meant the dissolved amount per volume that the medium holds. Broadly, the Cmax is the highest concentration seen after dosing. In turn, `Cc1sc2ncnc(SCC(=O)N3CC(=O)N(C)C3)c2c1Cl` [Compound 5l] had an IC50 against Notum(81–451 Cys330Ser) [3] of 0.0024 ± 0.0004 µM. The Papp with P-gp (MDR1) (setting [7]) is 36 ×10⁻⁶ cm/s; with P-gp (MDR1) (setting [8]), 42 ×10⁻⁶ cm/s. The Notum enzymatic stability result on Notum is given as “only parent was detected”. For the same compound, the logD in the data set “LogD7.4” is 1.8. Also, the solubility in the data set “Aqueous solubility” was 77 µg/mL and 215 µM. The Hydrolytic stability entry in data set [5] was “only parent was detected”. In data set [6] (setting [9]), the Cmax was 120 ng/mL. Moreover, the AUC(0-inf) in data set [6] (C57BL/6, mouse, po, plasma, male C57BL6 mice, read-out: AUC(0-inf)) was 70 ng·h/mL.

One may read the Tmax as the time from dosing to the highest level. Turning to `Cc1c(C(F)(F)F)oc2ncnc(SCC(=O)N3CC(=O)N(C)C3)c12` [Compound 24, 3-Methyl-1-(2-((5-methyl-6-(trifluoromethyl)furo[2,3-d]pyrimidinyl-4-yl)thio)acetyl)imidazolin-4-one], the IC50 against CYP2C9 is more than 30 µM. On CYP1A2, this compound had an IC50 of more than 30 µM. Besides, the “Mouse plasma stability (in words)” value in “Mouse plasma stability” (after 120 min) is listed as “no degradation observed”. Besides, the fraction remaining at 2 h in the data set “Mouse plasma stability” (mouse, plasma, 120 min) was 110%. Further, the IC50 against CYP2D6 was more than 30 µM. For the same compound, the “MLM Cli” value in [4] (Table 5) is on record as 6.9 μL/min/mg protein. In [4] (mouse liver microsomes), the “MLM Cli” value is 6.9 µL/min/mg and the “Metabolic stability in MLM (in words)” value is “high metabolic stability”. Further, the solubility in “Aqueous solubility” was 45 µg/mL and 120 µM. Also, the IC50 against CYP3A4 was more than 30 µM. Further, in [6] (setting [10]), the Cmax at 24 h was 1210 ng/g and the Tmax was 30 min. Besides, in data set [6] (setting [9]), the AUC(0-inf) at 24 h came out at 5490 ng·h/mL, the AUC(0-t) at 24 h is 5390 ng·h/mL, the Cmax at 24 h stood at 3850 ng/mL and the Tmax is 30 min. Also, in data set [6] (brain, male C57BL6 mice), the “AUC(0-inf)” value amounted to 1610 ng·h/g and the “AUC(0-t)” value worked out at 1550 ng·h/g. Moreover, in data set [6] (mouse, free drug), the “Cmax[brain] (free drug)” value is on record as “≈ 0.5 μM” and the “Cmax[plasma] (free drug)” value is recorded as “≈ 2.2 μM”. At CYP2B6, the IC50 is more than 30 µM.
